Here are results for three compounds from US20240043860A1, “NOVEL HYDROXYPHENYLPYRUVATE DIOXYGENASE POLYPEPTIDES AND METHODS OF USE THEREOF” (Syngenta Crop Protection AG, priority 2020, published 2024).

Values joined by “and” are separate entries in the source; they are usually repeats but may differ in a detail not shown here. Identical values can stand only once. Like-named read-outs stand apart in the source and are kept apart here.

For assay [1], the target named is HPPD variant AVESA V200 (SEQ ID NO: 5) (Avena sativa, UniProt A0ACD5V6K6, A327R/I340E/L359M/V218I/V260A). As to the kind of experiment: biochemical. The procedure:
(§1) 25 ul of the overnight cultures were inoculated into fresh 96-deepwell block containing 1 ml Formedium Autoinduction Media (AIM). The AIM cultures were grown for 3h at 37° C. (900rpm) and then transferred to 20° C. overnight (900rpm) to allow protein expression. The overnight cultures were centrifuged and 500 ul of Cellytic B (Sigma Aldrich) was added to resuspend the cell pellets. The coupled HGO assay (Siehl et al, 2014) is used to generate IC50 values for the HPPD variants of interest.
E. coli BL21 (DE3) cells were transformed with a pET24a vector containing a C-terminally his-tagged Arabidopsis HGO gene, grown and induced overnight as described for the HPPD variants above. […]
The coupled HGO assay is carried out by adding 10 ul of HPPD extract to a 96-well plate and then adding 40 ul of reaction buffer (50 mM Bis Tris Propane, pH7.0, 25 mM sodium-L-ascorbate, 400μM mercaptoethanol, 50 μM Fe(II)SO4). […] 200 ul of HPP/HGO (197 μM hydroxyphenylpyruvic acid, 16 μl/ml Homogentisic Acid Oxidase in reaction buffer as described above) buffer is then added to the well and the reaction is regularly monitored (e.g. every 30 seconds-5 minutes) for absorbance at 330 nm for a given time period (e.g., for between 15-60 minutes). […]

Assay [2] has as its target HPPD variant AVESA V307 (SEQ ID NO: 35) (Avena sativa, UniProt A0ACD5V6K6, A327R/I340E/L359M/P271N/R214G/V218I/V260A). Description: biochemical. Format: biochemical. The procedure: as §1
(§2) E. coli BL21 (DE3) cells were transformed with a pET24a vector containing a C-terminally his-tagged Arabidopsis HGO gene, grown and induced overnight as described for the HPPD variants above. The cell pellet was resuspended in phosphate buffered saline at pH 7.4 containing 10% Glycerol, 1mm Tris[2-carboxyethyl] phosphine-HCl (TCEP) plus 30 mM Imidazole and lysed using lysozyme/benzonase. The extract was clarified by low speed centrifugation and purified in the same buffer down a 1 ml His Gravitrap column. The bound HGO was eluted in 0.25M imidazole and the fractions pooled and beaded into liquid nitrogen. All procedures apart from the centrifugation and beading steps were carried out under a nitrogen atmosphere.
(§3) The coupled HGO assay is carried out by adding 10 ul of HPPD extract to a 96-well plate and then adding 40 ul of reaction buffer (50 mM Bis Tris Propane, pH7.0, 25 mM sodium-L-ascorbate, 400μM mercaptoethanol, 50 μM Fe(II)SO4). The plates are left to incubate for 5 minutes on ice. […] 200 ul of HPP/HGO (197 μM hydroxyphenylpyruvic acid, 16 μl/ml Homogentisic Acid Oxidase in reaction buffer as described above) buffer is then added to the well and the reaction is regularly monitored (e.g. every 30 seconds-5 minutes) for absorbance at 330 nm for a given time period (e.g., for between 15-60 minutes). The data can then be used to calculate the IC50 value for each HPPD variant of interest.

Assay [3] deals with transgenic tobacco plants expressing mutant HPPD SEQ ID NO: 9. As to the kind of experiment: spray test, herbicidal damage scoring. Type of assay: in vivo. The procedure: Avena sativa HPPD or orthologues and variants thereof, for example SEQ IDs 1-63 and 122-127, were expressed in transgenic tobacco. DNA sequences that encode these polypeptides (optimized for tobacco or, optionally, codon optimized according to a target crop such as soybean) were prepared synthetically. Each sequence was designed to include a 5′ fusion with TMV omega 5′ leader sequence such that they are flanked at the 5′ end with XhoI and at the 3′ end with KpnI to facilitate direct cloning into a suitable binary vector for Agrobacterium-based plant transformation.
In one example, the TMV omega 5′ leader and a HPPD encoding gene of interest is excised using XhoI/KpnI and cloned into similarly digested binary vector pBIN 19 (Bevan, Nucl. Acids Res. (1984) behind a double enhanced 35S promoter ahead of a NOS 3′ transcription terminator and then transformed into E. coli DH5 alpha competent cells. DNA recovered from the E. coli is used to transform Agrobacterium tumefaciens LBA4404, and transformed bacteria are selected on media contain rifampicin and kanamycin. Tobacco tissue is subjected to Agrobacterium-mediated transformation using methods well described in the art or as described herein. For example, a master plate of Agrobacterium tumefaciens containing the HPPD expressing the binary vector is used to inoculate 10 ml LB (L broth) containing 100 mg/l Rifampicin plus 50 mg/l Kanamycin using a single bacterial colony. This is incubated overnight at 28° C. shaking at 200 rpm. This entire overnight culture is used to inoculate a 50 ml volume of LB containing the same antibiotics. Again this is cultured overnight at 28° C. shaking at 200 rpm. […]
Plants are assessed for damage and scored at, for example, 7 and 14 days after treatment (DAT). […]
Plants of events showing the least damage are grown to flowering, then bagged and allowed to self. […] Single copy events amongst the Ti plant lines are identified by their 3:1 segregation ratio (with respect to kanamycin and/or herbicide) and by quantitative RT-PCR. […] HPPD expression levels were monitored by Western analysis. […]

For assay [4], the target named is HPPD variant AVESA V201 (SEQ ID NO: 8) (Avena sativa, UniProt A0ACD5V6K6, A327R/G411A/I340E/L359M/V218I/V260A). Type of assay: biochemical. The following applies: AVESA V201, SEQ ID NO: 8. The procedure:
as §1, §2, §3

Assay [5] has as its system transgenic tobacco plants expressing mutant HPPD SEQ ID NO: 125. Description: spray test, herbicidal damage scoring. Type of assay: in vivo.

HPPD variant AVESA V307 (SEQ ID NO: 35), sequence (A0ACD5V6K6 entry or part of it R214G/V218I/V260A/P271N/A327R/I340E/L359M): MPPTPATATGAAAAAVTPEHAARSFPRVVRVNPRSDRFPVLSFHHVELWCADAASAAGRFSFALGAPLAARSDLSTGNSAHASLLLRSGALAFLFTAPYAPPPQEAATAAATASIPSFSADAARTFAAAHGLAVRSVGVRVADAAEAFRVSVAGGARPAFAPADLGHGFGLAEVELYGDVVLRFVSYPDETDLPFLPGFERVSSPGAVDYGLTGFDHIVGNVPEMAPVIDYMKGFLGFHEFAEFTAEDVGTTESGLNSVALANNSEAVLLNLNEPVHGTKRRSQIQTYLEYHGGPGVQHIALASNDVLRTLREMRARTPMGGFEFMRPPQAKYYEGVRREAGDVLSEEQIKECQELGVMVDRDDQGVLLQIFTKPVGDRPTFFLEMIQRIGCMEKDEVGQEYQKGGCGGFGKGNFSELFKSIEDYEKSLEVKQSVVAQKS
HPPD variant AVESA V201 (SEQ ID NO: 8), sequence (A0ACD5V6K6 entry or part of it V218I/V260A/A327R/I340E/L359M/G411A): as the sequence (A0ACD5V6K6 entry or part of it R214G/V218I/V260A/P271N/A327R/I340E/L359M) above, with G214R, N271P, G411A counted along it
HPPD variant AVESA V200 (SEQ ID NO: 5), sequence (A0ACD5V6K6 entry or part of it V218I/V260A/A327R/I340E/L359M): as the sequence (A0ACD5V6K6 entry or part of it R214G/V218I/V260A/P271N/A327R/I340E/L359M) above, with G214R, N271P counted along it

Take `Cn1nnnc1NC(=O)c1ccc(C(F)(F)F)nc1-n1cncn1` [Herbicide D, N-(1-methyltetrazol-5-yl)-2-(1,2,4-triazol-1-yl)-6-(trifluoromethyl)pyridine-3-carboxamide]: the IC50 (in general, the concentration needed to halve the response being measured) in assay [1] is 63.2 µM; in assay [2], 262 µM. Moreover, in assay [3] (2000 g/ha, SEQ ID 9 plants compared to plants expressing SEQ IDs 122, 124 or 125), the damage result is “significantly reduced damage”.
For `COc1ccc(-n2nc(C)cc(C(=O)C3C(=O)CCCC3=O)c2=O)cc1OC` [Herbicide C, dioxopyritrione], the IC50 is 0.89 µM in assay [4] and less than 0.19 µM in assay [2] (AVESA V307, SEQ ID NO: 35, read-out: IC50). Besides, the tolerance entry is reported as “display tolerance” in assay [3] (SEQ ID 9 plants, 100 g/ha (Table 3.4)) and “display tolerance” in assay [5] (SEQ ID 125 plants, 100 g/ha (Table 3.4)). The “tolerance compared to plants expressing SEQ ID 125” value in assay [3] (SEQ ID 9 plants, 200 g/ha (Table 3.4)) was “higher tolerance”. Moreover, the “herbicidal damage scoring, Herbicide C (200 g/ha)” value in assay [5] (Table 3.4, 14 days after treatment, SEQ ID 125, 100=complete death, 0=no damage, one value per event) was 60 and 80 and 75 and 85.
For bicyclopyrone, in assay [4], the IC50 was greater than 500 µM.
